Data: article PMC8571282 (Nature Communications, 2021)

Assay: Toxicity-testing across the cell panel (range)
Settings: human, African green monkey, hamster

N#C[C@@]1(c2ccc3c(N)ncnn23)O[C@H](CO)[C@@H](O)[C@H]1O [GS-441524] showed a CC50 at 72 h greater than 100 µM.
